In US20120213758A1, “BIARYL PDE4 INHIBITORS FOR TREATING PULMONARY AND CARDIOVASCULAR DISORDERS” (DeCODE Genetics enf, priority 2007, published 2012):
Where a name gives a salt, the structure may show the parent alone. Read-outs that look alike come from different tables or passages of the source.

Legend:
[1] = target: hPDE4D (Homo sapiens, UniProt Q08499); assay: In-vitro real-time enzyme-coupled spectrophotometric assay for PDE4 enzymes (hPDE4D)
[2] = target: hPDE4B (Homo sapiens, UniProt Q07343); assay: In-vitro real-time enzyme-coupled spectrophotometric assay for PDE4 enzymes (hPDE4B)
hPDE4B, sequence (Q07343 whole entry): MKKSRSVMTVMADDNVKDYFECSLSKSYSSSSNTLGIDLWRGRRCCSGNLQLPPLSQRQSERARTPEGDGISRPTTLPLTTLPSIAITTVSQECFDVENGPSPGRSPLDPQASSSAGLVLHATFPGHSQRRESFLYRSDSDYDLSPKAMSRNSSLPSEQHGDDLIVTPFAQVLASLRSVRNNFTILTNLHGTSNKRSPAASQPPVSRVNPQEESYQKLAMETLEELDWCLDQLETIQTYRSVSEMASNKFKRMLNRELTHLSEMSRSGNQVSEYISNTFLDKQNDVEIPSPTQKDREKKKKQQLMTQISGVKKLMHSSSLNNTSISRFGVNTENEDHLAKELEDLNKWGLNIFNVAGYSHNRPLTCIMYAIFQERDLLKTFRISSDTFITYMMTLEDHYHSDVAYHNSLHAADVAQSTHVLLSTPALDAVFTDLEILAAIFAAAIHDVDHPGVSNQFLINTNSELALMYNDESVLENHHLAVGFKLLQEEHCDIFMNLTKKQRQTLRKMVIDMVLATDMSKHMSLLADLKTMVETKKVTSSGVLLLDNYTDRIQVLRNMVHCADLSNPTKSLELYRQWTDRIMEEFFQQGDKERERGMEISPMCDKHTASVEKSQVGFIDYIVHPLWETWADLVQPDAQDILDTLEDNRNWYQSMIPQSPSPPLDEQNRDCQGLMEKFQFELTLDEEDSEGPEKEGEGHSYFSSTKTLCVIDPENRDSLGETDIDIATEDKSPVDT

[3] = system: experimentally-induced interstitial cystitis; details: rats; frequency of urination decreased, urine volume per urination increased; cited from earlier work
[4] = system: patients suffering from asthma and COPD; details: effect of cilomilast disappeared on long-term trial; cited from earlier work

hPDE4D, sequence (Q08499 whole entry): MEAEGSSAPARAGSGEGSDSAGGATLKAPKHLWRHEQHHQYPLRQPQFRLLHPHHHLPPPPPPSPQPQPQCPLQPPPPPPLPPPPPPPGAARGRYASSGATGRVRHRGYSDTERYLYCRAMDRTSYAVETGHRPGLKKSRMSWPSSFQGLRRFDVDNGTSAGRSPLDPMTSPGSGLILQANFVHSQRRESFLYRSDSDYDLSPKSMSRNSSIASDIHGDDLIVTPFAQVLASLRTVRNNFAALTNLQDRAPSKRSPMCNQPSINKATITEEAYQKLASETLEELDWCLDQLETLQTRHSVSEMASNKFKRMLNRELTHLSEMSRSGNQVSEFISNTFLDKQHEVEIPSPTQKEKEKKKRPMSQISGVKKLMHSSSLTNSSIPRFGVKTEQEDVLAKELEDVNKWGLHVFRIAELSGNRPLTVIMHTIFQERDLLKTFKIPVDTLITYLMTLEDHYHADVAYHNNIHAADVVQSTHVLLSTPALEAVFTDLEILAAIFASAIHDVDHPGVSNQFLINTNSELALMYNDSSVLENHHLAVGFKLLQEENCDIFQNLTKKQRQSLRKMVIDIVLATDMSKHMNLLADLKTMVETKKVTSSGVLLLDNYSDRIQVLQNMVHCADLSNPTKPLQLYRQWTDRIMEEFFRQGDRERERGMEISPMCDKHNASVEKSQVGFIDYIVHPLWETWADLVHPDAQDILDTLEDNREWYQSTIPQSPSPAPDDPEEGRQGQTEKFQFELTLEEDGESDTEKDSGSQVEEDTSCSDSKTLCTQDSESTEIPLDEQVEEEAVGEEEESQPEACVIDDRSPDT

| SMILES | IC50 [1] | IC50 [2] | other results |
| --- | --- | --- | --- |
| COc1ccc(Cc2ccc(N3CCC3C(=O)O)nc2)c(F)c1-c1cccc(Cl)c1 (stereo not shown) [Example A-054] | < 5 µM | < 5 µM | – |
| COc1ccc(Cc2ccc(N(CC(=O)O)C(N)=O)nc2)c(F)c1-c1cccc(Cl)c1 [Example A-057, {1-[5-(3′-chloro-2-fluoro-6-methoxy-biphenyl-3-ylmethyl)-pyridin-2-yl]-ureido}-acetic acid] | < 5 µM | < 5 µM | – |
| COc1ccc(Cc2nnn[nH]2)c(F)c1-c1cccc(Cl)c1 [Example A-058, 5-(3′-Chloro-2-fluoro-6-methoxy-biphenyl-3-ylmethyl)-1H-tetrazole] | 5 to 20 µM | 20 to 40 µM | – |
| COc1ccc(Cn2cnc(C(=O)O)c2)c(F)c1-c1cccc(Cl)c1 [Example A-059, 1-(3′-Chloro-2-fluoro-6-methoxy-biphenyl-3-ylmethyl)-1H-imidazole-4-carboxylic acid] | < 5 µM | 5 to 20 µM | – |
| COc1ccc(Cn2cncc2C(=O)O)c(F)c1-c1cccc(Cl)c1 [Example A-060, 3-(3′-Chloro-2-fluoro-6-methoxy-biphenyl-3-ylmethyl)-3H-imidazole-4-carboxylic acid] | < 5 µM | 5 to 20 µM | – |
| COc1ccc(Cc2ccc(N3CC[C@@H]3C(=O)O)nc2)c(F)c1-c1cccc(Cl)c1 [Example A-061, (R)-1-[5-(3′-chloro-2-fluoro-6-methoxy-biphenyl-3-ylmethyl)-pyridin-2-yl]-azetidine-2-carboxylic acid] | < 5 µM | 5 to 20 µM | – |
| COc1ccc(Cc2ccc(N3CCC[C@H]3C(=O)O)nc2)c(F)c1-c1cccc(Cl)c1 [Example A-063, (S)-1-[5-(3′-chloro-2-fluoro-6-methoxy-biphenyl-3-ylmethyl)-pyridin-2-yl]-pyrrolidine-2-carboxylic acid] | < 5 µM | < 5 µM | – |
| COc1ccc(C(O)c2ccc(NC(=O)NNC(C)=O)cc2)c(F)c1-c1cccc(Cl)c1 (stereo not shown) [Example A-065, 1-acetic amido-3-{4-[(3′-chloro-2-fluoro-6-methoxy-biphenyl-3-yl)-hydroxy-deutero-methyl]-phenyl}-urea] | – | – | IC50 ([1]; read-out: hPDE4D activity, enzyme-coupled NADH assay, absorbance at 340 nm): < 5 µM; IC50 ([2]; read-out: hPDE4B activity, enzyme-coupled NADH assay, absorbance at 340 nm): 5 to 20 µM |
| COc1ccc(Cc2ccc(N3CC[C@H]3C(=O)O)nc2)c(F)c1-c1cccc(Cl)c1 [Example A-066, (S)-1-[5-(3′-chloro-2-fluoro-6-methoxy-biphenyl-3-ylmethyl)-pyridin-2-yl]-azetidine-2-carboxylic acid] | < 5 µM | < 5 µM | – |
| COc1ccc(Cc2ccc(N3CCC3C(=O)O)nc2)cc1-c1cccc(Cl)c1 (stereo not shown) [Example A-067, 1-[5-(3′-chloro-6-methoxy-biphenyl-3-ylmethyl)-pyridin-2-yl]-azetidine-2-carboxylic acid acetate salt] | < 5 µM | 5 to 20 µM | – |
| COc1ccc(Cc2ccc(N3CCC[C@H]3C(=O)O)nc2)cc1-c1cccc(Cl)c1 [Example A-068, (S)-1-[5-(3′-chloro-6-methoxy-biphenyl-3-ylmethyl)-pyridin-2-yl]-pyrrolidine-2-carboxylic acid] | < 5 µM | < 5 µM | – |
| COc1ccc(Cc2ccc(N3CCCC(C(=O)O)C3)nc2)c(F)c1-c1cccc(Cl)c1 (stereo not shown) [Example A-070, 5′-(3′-Chloro-2-fluoro-6-methoxy-biphenyl-3-ylmethyl)-3,4,5,6-tetrahydro-2H-[1,2′]bipyridinyl-3-carboxylic acid] | < 5 µM | 5 to 20 µM | – |
| COC(=O)c1ccc(Cc2ccc(OC)c(-c3cccc(Cl)c3)c2)cn1 [Example A-073, 5-(3′-chloro-6-methoxy-biphenyl-3-ylmethyl)-pyridine-2-carboxylic methyl ester] | < 5 µM | < 5 µM | – |
| COc1ccc(Cc2ccc(N(C)CC(=O)O)nc2)c(F)c1-c1cccc(Cl)c1 [Example A-074, {[5-(3′-chloro-2-fluoro-6-methoxy-biphenyl-3-ylmethyl)-pyridin-2-yl]-methyl-amino}-acetic acid] | < 5 µM | < 5 µM | – |
| COC(=O)c1ccc(Cc2ccc(OC(F)F)c(-c3cccc(Cl)c3)c2)cn1 [Example A-075, 5-(3′-Chloro-6-difluoromethoxy-biphenyl-3-ylmethyl)-pyridine-2-carboxylic acid methyl ester] | < 5 µM | < 5 µM | – |
| FC(F)Oc1ccc(Cc2ccc(-c3nnn[nH]3)nc2)cc1-c1cccc(Cl)c1 [Example A-076, 5-(3′-Chloro-6-difluoromethoxy-biphenyl-3-ylmethyl)-2-(1H-tetrazol-5-yl)-pyridine hydrochloride salt] | < 5 µM | < 5 µM | – |
| COc1ccc(Cc2ccc(F)cc2)[n+]([O-])c1-c1cccc([N+](=O)[O-])c1 [Example B-080, 6-(4-Fluoro-benzyl)-3-methoxy-2-(3-nitro-phenyl)-pyridine 1-oxide] | < 5 µM | < 5 µM | – |
| CCNC(=O)Nc1ccc(Cc2ccc(OC)c(-c3cccc(Cl)c3)c2F)c[n+]1O [Example B-081, 1-[5-(3′-Chloro-2-fluoro-6-methoxy-biphenyl-3-ylmethyl)-1-oxy-pyridin-2-yl]-3-ethyl-urea] | < 5 µM | < 5 µM | – |
| CCNC(=O)NCc1ccc(Cc2ccc(OC)c(-c3cccc(Cl)c3)c2F)c[n+]1[O-] [Example B-082, 1-[5-(3′-Chloro-2-fluoro-6-methoxy-biphenyl-3-ylmethyl)-1-oxy-pyridin-2-ylmethyl]-3-ethyl-urea] | < 5 µM | < 5 µM | – |
| COc1ccc(Cc2ccc(CN3CCNC3=O)[n+]([O-])c2)c(F)c1-c1cccc(Cl)c1 [Example B-083, 1-[5-(3′-Chloro-2-fluoro-6-methoxy-biphenyl-3-ylmethyl)-1-oxy-pyridin-2-ylmethyl]-imidazolidin-2-one] | < 5 µM | < 5 µM | – |
| CCc1ccc2c(-c3cccc(Cl)c3)nc(=O)n(CC)c2n1 [YM976] | – | – | effect on experimentally-induced interstitial cystitis [3]: ameliorate the effects of experimentally-induced interstitial cystitis in rats |
| COc1ccc([C@]2(C#N)CC[C@@H](C(=O)O)CC2)cc1OC1CCCC1 [cilomilast] | – | – | clinical effect in asthma and COPD [4]: showed initially excellent results |
| O=C(Nc1c(Cl)cncc1Cl)c1ccc(OC(F)F)c(OCC2CC2)c1 [roflumilast] | – | – | clinical effect in asthma and COPD [4]: showed initially excellent results |
